From patent publication US20260158005A1, “A SALT-BASED ANTIFUNGAL POWDER PLATFORM FORMULATION FOR AEROSOLIZATION” (AGENCY FOR SCIENCE, TECHNOLOGY AND RESEARCH, priority 2021, published 2026)
In brackets after ≈: the same amount, converted by molar mass.

Tests used:
[1] = In vitro aerosol performance: Fine Particle Fraction (FPF) of the powder; assay type: physicochemical; conditions: Table 5; optimized platform formulation (sodium sulfate 5% w/w, L-leucine 30% w/w, spray dry) vs unformulated
Text: The responses were Fine Particle Fraction (FPF) and Anti-fungal Activity (MIC—Minimum Inhibitory Concentration) (Table 2), while the tested pathogen was Candida albicans.
The FPF was influenced mainly by the type of salt excipient (i.e., parameter A; Rank 1), with sodium sulfate as one of the preferred options. The optimum results for all the parameters are: A6, B1, C1, D3.
Letters A, B, C and D represent the experimental parameters and corresponding levels.

[2] = tested on: Candida albicans; experiment: Antifungal activity (MIC, Minimum Inhibitory Concentration); assay type: cell-based; conditions: for MIC: Candida albicans, Table 5, optimized platform formulation vs unformulated
Text: The responses were Fine Particle Fraction (FPF) and Anti-fungal Activity (MIC—Minimum Inhibitory Concentration) (Table 2), while the tested pathogen was Candida albicans. The antifungal activity was influenced mainly by the type of salt excipient as well (i.e. parameter A; Rank 1), with sodium sulfate as one of the preferred options. The optimum results for all the parameters are: A6, B1, C3, D3.

FPF (%) [1] | MIC [2] | Structure (SMILES) | improvement in antifungal activity ([2]; formulated using the platform technology vs unformulated)
2.6 ± 0.1% | 0.25 mg/L (≈ 0.816 µM) | OC(Cn1cncn1)(Cn1cncn1)c1ccc(F)cc1F [A, Fluconazole] | approximately 4 times
3.5 ± 0.3% | < 0.03 mg/L | C[C@@H](c1ncncc1F)[C@](O)(Cn1cncn1)c1ccc(F)cc1F [C, Voriconazole] | 
 | < 0.03 mg/L | CCC(C)n1ncn(-c2ccc(N3CCN(c4ccc(OCC5COC(Cn6cncn6)(c6ccc(Cl)cc6Cl)O5)cc4)CC3)cc2)c1=O (stereo not drawn) [B, Itraconazole] | 
